According to ChEMBL document CHEMBL3885881, “DrugMatrix”:

Species on record: Rattus norvegicus
Test: DrugMatrix - Regimen: Daily Repeat
Type: toxicity, organism-based, Sprague-Dawley
Set-up: regimen Daily Repeat, gender Male, age 6-8 weeks
Conditions: in vivo, po, route oral GAVAGE, […]; for POTASSIUM / SODIUM / TOTAL BILIRUBIN / TOTAL PROTEIN / URIC ACID / ALANINE AMINOTRANSFERASE / ALBUMIN / ALKALINE PHOSPHATASE / ASPARTATE AMINOTRANSFERASE / BLOOD UREA NITROGEN / CARBON DIOXIDE / CHLORIDE / CHOLESTEROL / CREATINE PHOSPHOKINASE / CREATININE / GLUCOSE / LIPASE / PHOSPHORUS / LACTATE DEHYDROGENASE: tissue Plasma; for ABSOLUTE BASOPHIL / ABSOLUTE EOSINOPHIL / ABSOLUTE LYMPHOCYTE / ABSOLUTE MONOCYTE / BASOPHIL / EOSINOPHIL / ERYTHROCYTE COUNT / HEMATOCRIT / HEMOGLOBIN / LEUKOCYTE COUNT / LYMPHOCYTE / MEAN CORPUSCULAR HEMOGLOBIN / MEAN CORPUSCULAR HEMOGLOBIN CONCENTRATION / MEAN CORPUSCULAR VOLUME / MONOCYTE / NEUTROPHIL / PLATELET COUNT: tissue Blood
[1] = 0 mg/kg, 72 h, dose level Control, time 3 day
[2] = 0 mg/kg, 120 h, dose level Control, time 5 day
[3] = 0 mg/kg, dose level Control, time 14 day
[4] = 15 mg/kg, 72 h, dose level High, time 3 day
[5] = 15 mg/kg, 120 h, dose level High, time 5 day
[6] = 15 mg/kg, dose level High, time 14 day

CC(CCc1ccc(O)cc1)NCCc1ccc(O)c(O)c1 (configuration not stated) [DOBUTAMINE]
POTASSIUM [1]: 6.13 MEQ/L | SODIUM [1]: 145 MEQ/L | TOTAL BILIRUBIN [1]: 0.43 mg/dL | TOTAL PROTEIN [1]: 6.7 G/DL | URIC ACID [1]: 0.83 mg/dL | ABSOLUTE BASOPHIL [2]: 33.3 cells/µL | ABSOLUTE EOSINOPHIL [2]: 56.7 cells/µL | ABSOLUTE LYMPHOCYTE [2]: 9220 cells/µL | ABSOLUTE MONOCYTE [2]: 230 cells/µL | BASOPHIL [2]: 0.3% | EOSINOPHIL [2]: 0.5% | ERYTHROCYTE COUNT [2]: 6.62 x10E6/uL | HEMATOCRIT [2]: 46.43% | HEMOGLOBIN [2]: 14.3 G/DL | LEUKOCYTE COUNT [2]: 10.96 x10E3/uL | LYMPHOCYTE [2]: 83.83% | MEAN CORPUSCULAR HEMOGLOBIN [2]: 21.57 pg | MEAN CORPUSCULAR HEMOGLOBIN CONCENTRATION [2]: 30.77 G/DL | MEAN CORPUSCULAR VOLUME [2]: 70.13 fL | MONOCYTE [2]: 2.1% | NEUTROPHIL [2]: 12.53% | PLATELET COUNT [2]: 1056.67 x10E3/uL | ALANINE AMINOTRANSFERASE [2]: 41.33 u/L | ALBUMIN [2]: 4.07 G/DL | ALKALINE PHOSPHATASE [2]: 603.33 u/L | ASPARTATE AMINOTRANSFERASE [2]: 80 u/L | BLOOD UREA NITROGEN [2]: 14.67 mg/dL | CARBON DIOXIDE [2]: 43 mmol/L | CHLORIDE [2]: 104 MEQ/L | CHOLESTEROL [2]: 88.33 mg/dL | CREATINE PHOSPHOKINASE [2]: 391.67 u/L | CREATININE [2]: 0.47 mg/dL | GLUCOSE [2]: 156 mg/dL | LIPASE [2]: 10.67 u/L | PHOSPHORUS [2]: 9.03 mg/dL | POTASSIUM [2]: 6.1 MEQ/L | SODIUM [2]: 145.67 MEQ/L | TOTAL BILIRUBIN [2]: 0.37 mg/dL | TOTAL PROTEIN [2]: 6.53 G/DL | URIC ACID [2]: 0.5 mg/dL | ABSOLUTE BASOPHIL [3]: 73.3 cells/µL | ABSOLUTE EOSINOPHIL [3]: 60 cells/µL | ABSOLUTE LYMPHOCYTE [3]: 12200 cells/µL | ABSOLUTE MONOCYTE [3]: 250 cells/µL | BASOPHIL [3]: 0.5% | EOSINOPHIL [3]: 0.37% | ERYTHROCYTE COUNT [3]: 7.33 x10E6/uL | HEMATOCRIT [3]: 44.3% | HEMOGLOBIN [3]: 14.77 G/DL | LEUKOCYTE COUNT [3]: 14.86 x10E3/uL | LYMPHOCYTE [3]: 81.87% | MEAN CORPUSCULAR HEMOGLOBIN [3]: 20.2 pg | MEAN CORPUSCULAR HEMOGLOBIN CONCENTRATION [3]: 33.33 G/DL | MEAN CORPUSCULAR VOLUME [3]: 60.57 fL | MONOCYTE [3]: 1.63% | NEUTROPHIL [3]: 14.93% | PLATELET COUNT [3]: 1101.67 x10E3/uL | ALANINE AMINOTRANSFERASE [3]: 31.67 u/L | ALBUMIN [3]: 3.83 G/DL | ALKALINE PHOSPHATASE [3]: 430.67 u/L | ASPARTATE AMINOTRANSFERASE [3]: 87 u/L | BLOOD UREA NITROGEN [3]: 14.33 mg/dL | CARBON DIOXIDE [3]: 39 mmol/L | CHLORIDE [3]: 104 MEQ/L | CHOLESTEROL [3]: 66 mg/dL | CREATINE PHOSPHOKINASE [3]: 441.67 u/L | CREATININE [3]: 0.7 mg/dL | GLUCOSE [3]: 125.67 mg/dL | LACTATE DEHYDROGENASE [3]: 397.67 u/L | LIPASE [3]: 12.33 u/L | PHOSPHORUS [3]: 9.87 mg/dL | POTASSIUM [3]: 5.93 MEQ/L | SODIUM [3]: 145 MEQ/L | TOTAL BILIRUBIN [3]: 0.37 mg/dL | TOTAL PROTEIN [3]: 6.27 G/DL | URIC ACID [3]: 0.67 mg/dL | ABSOLUTE BASOPHIL [4]: 23.3 cells/µL | ABSOLUTE EOSINOPHIL [4]: 50 cells/µL | ABSOLUTE LYMPHOCYTE [4]: 6060 cells/µL | ABSOLUTE MONOCYTE [4]: 170 cells/µL | BASOPHIL [4]: 0.3% | EOSINOPHIL [4]: 0.67% | ERYTHROCYTE COUNT [4]: 6.67 x10E6/uL | HEMATOCRIT [4]: 46.03% | HEMOGLOBIN [4]: 14.2 G/DL | LEUKOCYTE COUNT [4]: 8.35 x10E3/uL | LYMPHOCYTE [4]: 72.8% | MEAN CORPUSCULAR HEMOGLOBIN [4]: 21.33 pg | MEAN CORPUSCULAR HEMOGLOBIN CONCENTRATION [4]: 30.87 G/DL | MEAN CORPUSCULAR VOLUME [4]: 69.1 fL | MONOCYTE [4]: 2.07% | NEUTROPHIL [4]: 23.9% | PLATELET COUNT [4]: 1110.33 x10E3/uL | ALANINE AMINOTRANSFERASE [4]: 48.33 u/L | ALBUMIN [4]: 4.07 G/DL | ALKALINE PHOSPHATASE [4]: 498.67 u/L | ASPARTATE AMINOTRANSFERASE [4]: 85.67 u/L | BLOOD UREA NITROGEN [4]: 18.67 mg/dL | CARBON DIOXIDE [4]: 41.67 mmol/L | CHLORIDE [4]: 105 MEQ/L | CHOLESTEROL [4]: 71.67 mg/dL | CREATINE PHOSPHOKINASE [4]: 568.67 u/L | CREATININE [4]: 0.6 mg/dL | GLUCOSE [4]: 196 mg/dL | LIPASE [4]: 199.67 u/L | PHOSPHORUS [4]: 9.2 mg/dL | POTASSIUM [4]: 5.77 MEQ/L | SODIUM [4]: 147.67 MEQ/L | TOTAL BILIRUBIN [4]: 0.43 mg/dL | TOTAL PROTEIN [4]: 6.67 G/DL | URIC ACID [4]: 0.6 mg/dL | ABSOLUTE BASOPHIL [5]: 26.7 cells/µL | ABSOLUTE EOSINOPHIL [5]: 26.7 cells/µL | ABSOLUTE LYMPHOCYTE [5]: 7530 cells/µL | ABSOLUTE MONOCYTE [5]: 170 cells/µL | BASOPHIL [5]: 0.27% | EOSINOPHIL [5]: 0.33% | ERYTHROCYTE COUNT [5]: 6.8 x10E6/uL | HEMATOCRIT [5]: 46.17% | HEMOGLOBIN [5]: 14.17 G/DL | LEUKOCYTE COUNT [5]: 9.18 x10E3/uL | LYMPHOCYTE [5]: 82.07% | MEAN CORPUSCULAR HEMOGLOBIN [5]: 20.87 pg | MEAN CORPUSCULAR HEMOGLOBIN CONCENTRATION [5]: 30.73 G/DL | MEAN CORPUSCULAR VOLUME [5]: 67.93 fL | MONOCYTE [5]: 1.87% | NEUTROPHIL [5]: 15% | PLATELET COUNT [5]: 1523.67 x10E3/uL | ALANINE AMINOTRANSFERASE [5]: 40.67 u/L | ALBUMIN [5]: 4.2 G/DL | ALKALINE PHOSPHATASE [5]: 613.33 u/L | ASPARTATE AMINOTRANSFERASE [5]: 74.67 u/L | BLOOD UREA NITROGEN [5]: 17 mg/dL | CARBON DIOXIDE [5]: 40.67 mmol/L | CHLORIDE [5]: 107.33 MEQ/L | CHOLESTEROL [5]: 84.33 mg/dL | CREATINE PHOSPHOKINASE [5]: 393 u/L | CREATININE [5]: 0.53 mg/dL | GLUCOSE [5]: 174.33 mg/dL | LIPASE [5]: 199.33 u/L | PHOSPHORUS [5]: 10.1 mg/dL | POTASSIUM [5]: 6.07 MEQ/L | SODIUM [5]: 149.33 MEQ/L | TOTAL BILIRUBIN [5]: 0.4 mg/dL | TOTAL PROTEIN [5]: 6.73 G/DL | URIC ACID [5]: 0.87 mg/dL | ABSOLUTE BASOPHIL [6]: 52 cells/µL | ABSOLUTE EOSINOPHIL [6]: 40 cells/µL | ABSOLUTE LYMPHOCYTE [6]: 9620 cells/µL | ABSOLUTE MONOCYTE [6]: 200 cells/µL | BASOPHIL [6]: 0.42% | EOSINOPHIL [6]: 0.34% | ERYTHROCYTE COUNT [6]: 7.05 x10E6/uL | HEMATOCRIT [6]: 43.9% | HEMOGLOBIN [6]: 14.6 G/DL | LEUKOCYTE COUNT [6]: 12.04 x10E3/uL | LYMPHOCYTE [6]: 79.76% | MEAN CORPUSCULAR HEMOGLOBIN [6]: 20.7 pg | MEAN CORPUSCULAR HEMOGLOBIN CONCENTRATION [6]: 33.26 G/DL | MEAN CORPUSCULAR VOLUME [6]: 62.28 fL | MONOCYTE [6]: 1.68% | NEUTROPHIL [6]: 17.28% | PLATELET COUNT [6]: 1124.2 x10E3/uL | ALANINE AMINOTRANSFERASE [6]: 35 u/L | ALBUMIN [6]: 4.04 G/DL | ALKALINE PHOSPHATASE [6]: 405.4 u/L | ASPARTATE AMINOTRANSFERASE [6]: 77.8 u/L | BLOOD UREA NITROGEN [6]: 14 mg/dL | CARBON DIOXIDE [6]: 43.2 mmol/L | CHLORIDE [6]: 103 MEQ/L | CHOLESTEROL [6]: 69.8 mg/dL | CREATINE PHOSPHOKINASE [6]: 325.8 u/L | CREATININE [6]: 0.8 mg/dL | GLUCOSE [6]: 144.4 mg/dL | LACTATE DEHYDROGENASE [6]: 182.2 u/L | LIPASE [6]: 12.2 u/L | PHOSPHORUS [6]: 10.48 mg/dL | POTASSIUM [6]: 6.04 MEQ/L | SODIUM [6]: 147 MEQ/L | TOTAL BILIRUBIN [6]: 0.36 mg/dL | TOTAL PROTEIN [6]: 6.56 G/DL | URIC ACID [6]: 0.66 mg/dL
